Results reported in patent publication US6559154B2 (priority 2000, dated 2003).

Legend:
[1] = test system: rats; details: rat, in vivo
[2] = cited from earlier work

For `N=C1NC(O)C2C3OC4(O)OC(C(O)C2(N1)C4O)C3(O)CO` (stereo not shown) [TTX, octahydro-12-(hydroxymethyl)-2-imino-5,9:7,10a-dimethano-10aH-(1,3)dioxocino(6,5-d)-pyrimidine-4,7,10,11, 12-pentol], the effective dosage [1] is listed as 2.5 µg/mg, the “solubility in acidic aqueous solution” value [2] is listed as “soluble” and the “solubility in organic solvents” value [2] is listed as “not soluble”. The solubility in water [2] was “only slightly soluble”.
